Key:
Assay type in all cases: cell-based, mouse
[1] = test system: NO release from LPS-stimulated BV2 cells; experiment: NO release inhibition in LPS-stimulated BV2 cells (Griess method); conditions: for IC50 / inhibition at 20 µM: Mus musculus, BV-2, LPS-stimulated BV2 cells; for IC50: 24 h; for Nitrite (NO release amount): BV2 cells induced by LPS, Griess test; for Nitrite (NO release amount) / inhibition at 20 µM: compound at 20 μM; for inhibition at 20 µM: read-out: NO inhibition rate
Method: BV2 cells stimulated by lipopolysaccharide (LPS) lead to an increase in NO release. Therefore, we used the inhibitory ability of the target compounds on NO as a preliminary method to evaluate their anti-neuroinflammatory properties. We evaluated the inhibitory ability of isatin–chalcone hybrid derivatives 4a–t on the release of NO from BV2 cells at 20 μM. The release amount of NO was detected by the Griess method, and the actual release amount of NO was calculated based on the experimental data.
BV2 cells were plated in 96-well microplates at 40,000 cells per well (100 μL/well) and incubated for 24 h. Then, 50 μL of LPS solution with a final concentration of 100 ng/mL and 50 μL of compounds (diluted with medium to a final concentration of 0.31–20 μM) were added, and each concentration had 3 parallel wells. The NO assay kit was used to carry out nitrite assays after 24 h. The 50 μL of culture medium was mixed with the GrisR1 (50 μL) and GrisR2 (50 μL) of the NO assay kit in another new 96-well plate. The absorbance was detected at 540 nm. The percentage of inhibition of NO was obtained from the following formula: [(Rlps − RB − RC)/(Rlps − RB)] × 100, where Rlps is the release amount of only the LPS-treated group, RB is the release amount of the normal control and RC is the release amount of the test compound and LPS-treated group. The IC50 values of test compounds were calculated by linear regression plots.

[2] = test system: IL-6; experiment: ELISA of IL-6 released by LPS-stimulated BV2 cells; conditions: for effect on production of IL-6: result in words
Method: (§1) BV2 cells were plated in 96-well microplates at 40,000 cells per well (100 μL/well) and incubated for 24 h. Then, 50 μL of LPS solution with a final concentration of 100 ng/mL and 50 μL of compounds (diluted with medium to a final concentration of 0.75–40 μM) were added, and each concentration had 3 parallel wells. The supernatant was collected after 24 h. Then, according to the manufacturer’s instructions, the ELISA assay kit was used to measure the concentrations of IL-6 and TNF-α. The absorbance was detected at 450 nm.

[3] = test system: TNF-α; experiment: ELISA of TNF-α released by LPS-stimulated BV2 cells; conditions: for effect on production of TNF-α: result in words
Method: as §1

[4] = test system: BV2 microglial cells; experiment: Cell viability assay (MTS) on BV2 cells; conditions: for IC50: Mus musculus, BV-2, MTS, 24 h
Method: (§2) BV2 microglial cells (SCSP-5208, Cell Bank, Chinese Academy of Sciences, Shanghai, China) were incubated in high-glucose DMEM supplemented with 10% fetal bovine serum and 1% penicillin and streptomycin in a humidified atmosphere of 5% CO2 at 37 °C.
(§3) BV2 cells were plated in 96-well microplates at 20,000 cells per well (100 μL/well) and incubated for 24 h. Then, 100 μL of compounds (diluted with medium to a final concentration of 1.56–100 μM) was added, and each concentration had 3 parallel wells. After 24 h, the cell viability was measured by MTS assay. The absorbance was detected at 490 nm. The percentage of viability was obtained from the following formula: ODdrug-treated/ODnormal cells × 100. The IC50 values of test compounds were calculated by linear regression plots.

[5] = Cell viability assay (MTS) on BV2 cells; conditions: mouse, BV2 microglial cells, MTS
Method: as §2, §3

With `COc1cc(C(=O)/C=C2/C(=O)N(CC(=O)OCCCc3ccccc3)c3ccccc32)cc(OC)c1OC` [Compound 5g, 3-Phenylpropyl (E)-2-(2-oxo-3-(2-oxo-2-(3,4,5-trimethoxyphenyl)ethylidene)indolin-1-yl)acetate] the IC50 [1] was 6 µM, the “effect on production of IL-6” value [2] was “relatively weaker inhibitory effects” and the “effect on production of TNF-α” value [3] was “relatively weaker inhibitory effects”. For the same molecule, the IC50 [4] was 48.5 µM.
For `CCOC(=O)CN1C(=O)/C(=C/C(=O)c2cc(OC)c(OC)c(OC)c2)c2ccccc21` [Compound 4j, Ethyl (E)-2-(2-oxo-3-(2-oxo-2-(3,4,5-trimethoxyphenyl)ethylidene)indolin-1-yl)acetate], the “Nitrite (NO release amount)” value [1] was 8.6 ± 0.1 µM, the IC50 [1] was 15.7 µM and the inhibition at 20 µM [1] was 71%. For the same molecule, the “effect on production of IL-6” value [2] was “relatively weaker inhibitory effects”, the “effect on production of TNF-α” value [3] was “relatively weaker inhibitory effects” and the IC50 [4] was 71.8 µM.
In the case of `CCOC(=O)CN1C(=O)/C(=C/C(=O)/C=C/c2ccccc2)c2ccccc21` [Compound 4b, Ethyl 2-((E)-2-oxo-3-((E)-2-oxo-4-phenylbut-3-en-1-ylidene)indolin-1-yl)acetate], the “Nitrite (NO release amount)” value [1] is reported as 0.69 ± 0.01 µM, the IC50 [1] is reported as 1.6 µM and the inhibition at 20 µM [1] is reported as 98%. The “reduction of IL-6 levels” value ([2]; compound at 1.5 μM, p < 0.0001) was 47%, the “effect on production of IL-6” value [2] was “decreased significantly” and the “reduction of TNF-α levels” value ([3]; compound at 1.5 μM, p < 0.0001) was 37%. For the same molecule, the “effect on production of TNF-α” value [3] was “decreased significantly”, the viability at 24 h, 3.1 µM ([5]; compound at 3.1 μM, read-out: cell viability (cell survival rate)) was 98.3% and the viability at 24 h, 6.3 μM ([5]; compound at 6.3 μM (printed 6.23 μM for 4b), read-out: cell viability (cell survival rate)) was 89.9%. It also gave a viability at 24 h, 12.5 µM ([5]; compound at 12.5 μM) of 79.5%, a viability at 24 h, 25 µM ([5]; compound at 25 μM, 24 h) of 48% and an IC50 [4] of 34.6 µM. For the same molecule, the cytotoxicity ([4]; under the concentration of 12.5 μM) was “did not show obvious cytotoxicity”.

Source: article PMC11990898, “Novel Isatin–Chalcone Hybrid Molecules: Design, Synthesis and Anti-Neuroinflammatory Activity Evaluation” (Molecules, 2025)
